In US12631626B2, “Continuous real-time monitoring of biomolecules in live subjects” (priority 2020, dated 2026):

Assay: Glucose measurement (RTCM and glucose meter) in an awake diabetic rat after insulin injection
Type: in vivo
Settings: conscious diabetic rat, after 40 minutes, same amount of insulin as in anesthetized rats
Method: FIGS. 6A-6B show glucose and insulin measurements in an awake diabetic rat. An awake diabetic rat was injected with human insulin, with blood samples collected at t=0, 5, 20, and 40 min after injection. Glucose levels were measured using RTCM and glucose meter (FIG. 6A), and insulin levels were measured using RTCM and ELISA (FIG. 6B).
Male Sprague Dawley rats (Charles River) were used for experiments. Animal studies were performed in accordance with the guidelines for the care and use of laboratory animals; all protocols were approved by the Stanford Institutional Animal Care and Use Committee. The protocol used for STZ induction adapted from the protocol by Kenneth K. Wu and Youming Huan (Wu, K. K., & Huan, Y. Streptozotocin-induced diabetic models in mice and rats. Curr. Protoc. Pharmacol. 5, 1-14 (2008)). Briefly, male Sprague Dawley rats 160-230 g (8-10 weeks) were weighed and fasted 6-8 hours prior to treatment with STZ. STZ was diluted to 10 mg/mL in the sodium citrate buffer immediately before injection. STZ solution was injected intraperitoneally at 65 mg/kg into each rat. Rats were provided with water containing 10% sucrose for 24 hours after injection with STZ. Rat blood glucose levels were tested for hyperglycemia daily after the STZ treatment via tail vein blood collection using a handheld Bayer Contour Next glucose monitor (Bayer). […]

Question: Which “Decrease in glucose level” value does the source give for “insulin: human insulin injected into an awake diabetic rat, same amount as in anesthetized rats; probably Humulin R” here?
Answer: 7 mM
